Blank lines part the entries; values can stand above or below the compound they belong to.
Test: solvent given as SMILES

Structure (SMILES): Cc1cc(-c2ccccc2)nc2c1ccc1nc(-c3ccccc3)cn12
fluorescence lifetime (in CC#N): 6.97 ns | fluorescence lifetime (in CCCCOC(C)=O): 6.04 ns | fluorescence lifetime (in CCOC(C)=O): 5.98 ns | fluorescence lifetime (in CO): 5.18 ns | fluorescence lifetime (in c1ccccc1): 5.55 ns

fluorescence lifetime (in ClCCl): 6.2 ns
Structure (SMILES): CCCCCCCCCCCCN1C(=O)c2c(c3ccc4cc(-c5ccc(C)cc5)c(OC)cc4c3c3c2ccc2cc(-c4ccc(C)cc4)c(OC)cc23)C1=O

fluorescence lifetime (in CS(C)=O): 4.4 ns
Structure (SMILES): CN(C)c1ccc2cc3c(cc2c1)OCCN=C3

Structure (SMILES): CN(CC(O)c1cccc(O)c1)c1ccc([N+](=O)[O-])c(C2CC(c3cccc4ccccc34)=NN2c2ccccc2)c1 (stereo not given)
fluorescence lifetime (in C1CCCCC1): 1.14 ns | fluorescence lifetime (in C1CCOC1): 3.56 ns | fluorescence lifetime (in C1COCCO1): 3.58 ns | fluorescence lifetime (in CC#N): 3.95 ns | fluorescence lifetime (in CC(C)O): 3.42 ns | fluorescence lifetime (in CCOC(C)=O): 4.01 ns | fluorescence lifetime (in CCOCC): 2 ns | fluorescence lifetime (in CO): 3.01 ns | fluorescence lifetime (in Cc1ccccc1): 1.72 ns | fluorescence lifetime (in ClC(Cl)Cl): 2.8 ns | fluorescence lifetime (in O): 2.42 ns

fluorescence lifetime (in c1cc(-c2cccc(-n3c4ccccc4c4ccccc43)c2)cc(-n2c3ccccc3c3ccccc32)c1): 32 ns
Structure (SMILES): CC1(C)c2ccccc2N(c2ccc3nc4c5ccc(N6c7ccccc7C(C)(C)c7ccccc76)cc5c5cc(N6c7ccccc7C(C)(C)c7ccccc76)ccc5c4nc3c2)c2ccccc21

fluorescence lifetime (in CC#N): 5.84 ns | fluorescence lifetime (in CCOC(C)=O): 3.77 ns | fluorescence lifetime (in CN(C)C=O): 6.33 ns | fluorescence lifetime (in CS(C)=O): 6.78 ns | fluorescence lifetime (in c1ccccc1): 2 ns
Structure (SMILES): CCOC(=O)CN(CC(=O)OCC)c1ccc(-c2cc(-c3ccncc3)nc(-c3ccncc3)c2)cc1

Structure (SMILES): CC1(C)c2ccccc2N(c2ccccc2)c2ccc(C(=O)c3ccc4c(c3)C(C)(C)c3ccccc3N4c3ccccc3)cc21
fluorescence lifetime (in O=P(c1ccccc1)(c1ccccc1)c1ccccc1Oc1ccccc1P(=O)(c1ccccc1)c1ccccc1): 0.81 ns

fluorescence lifetime (in ClC(Cl)Cl): 2.3 ns
Structure (SMILES): COc1ccc(C2=Cc3ccc4ccccc4[n+]3[B-](F)(F)O2)cc1

Structure (SMILES): CCn1c2ccsc2c2c3nsnc3c3c4sccc4n(CC)c3c21
fluorescence lifetime (in C1CCOC1): 23.7 ns | fluorescence lifetime (in CCOC(C)=O): 24.2 ns | fluorescence lifetime (in CN(C)C=O): 22.1 ns | fluorescence lifetime (in Cc1ccccc1): 19.4 ns | fluorescence lifetime (in ClCCl): 16.6 ns

fluorescence lifetime (in ClC(Cl)Cl): 7.63 ns
Structure (SMILES): CC[Si](CC)(CC)c1cc2ccc3cccc4ccc(c1C(=O)NC(C)(C)C)c2c34

fluorescence lifetime (in O): 1.13 ns
Structure (SMILES): COc1cc(N2CCOCCOCCN(c3cc(OC)c(NC(=O)c4ccc(-c5c6cc(Cl)c(=O)cc-6oc6cc([O-])c(Cl)cc56)c(C(=O)[O-])c4)cc3OC)CCOCC2)c(OC)cc1NC(=O)c1ccc(-c2c3cc(Cl)c(=O)cc-3oc3cc([O-])c(Cl)cc23)c(C(=O)[O-])c1

fluorescence lifetime (in C1CCOC1): 13.8 ns | fluorescence lifetime (in C1COCCO1): 14.9 ns | fluorescence lifetime (in CC#N): 3.9 ns
Structure (SMILES): CN(C)c1ccc2c(c1)C(=O)NC2=O

fluorescence lifetime (in ClC(Cl)Cl): 0.72 ns
Structure (SMILES): CC[N+](CC)=c1ccc2c(-c3ccccc3C(=O)O)c3cc4c(-c5ccccc5C(=O)O)c5ccc(=[N+](CC)CC)cc-5oc4cc3oc-2c1

fluorescence lifetime (in CC(C)O): 4.36 ns | fluorescence lifetime (in CCCCCCCCO): 4.52 ns | fluorescence lifetime (in CCCCCCO): 4.48 ns | fluorescence lifetime (in CCCCO): 4.4 ns | fluorescence lifetime (in CCCO): 4.42 ns | fluorescence lifetime (in CCO): 4.25 ns | fluorescence lifetime (in CO): 4.28 ns | fluorescence lifetime (in O): 4.16 ns | fluorescence lifetime (in [2H]O[2H]): 4.36 ns
Structure (SMILES): O=C([O-])c1ccccc1-c1c2ccc(=O)cc-2oc2cc([O-])ccc12

fluorescence lifetime (in ClCCl): 6.1 ns
Structure (SMILES): CC(C)(C)c1ccc(-c2nc3c4ccc(-c5c6ccccc6cc6ccccc56)cc4c4cc(-c5c6ccccc6cc6ccccc56)ccc4c3n2-c2ccc(C(C)(C)C)cc2)cc1

Structure (SMILES): N#Cc1cc(N2c3ccccc3Oc3ccccc32)cc(N2c3ccccc3Oc3ccccc32)c1
fluorescence lifetime (in Cc1ccccc1): 26.1 ns

Structure (SMILES): Cc1ccc(C2=C3C=CC(c4ccccc4)=[N+]3[B-](F)(F)n3c2ccc3-c2ccccc2)cc1
fluorescence lifetime (in C1CCCCC1): 1.56 ns | fluorescence lifetime (in C1CCOC1): 1.4 ns | fluorescence lifetime (in C1COCCO1): 1.59 ns | fluorescence lifetime (in CCOC(C)=O): 1.37 ns | fluorescence lifetime (in CO): 1.22 ns | fluorescence lifetime (in Cc1ccccc1): 2.17 ns | fluorescence lifetime (in ClC(Cl)Cl): 1.97 ns

fluorescence lifetime (in CC#N): 4.85 ns
Structure (SMILES): N#C/C(=C\c1ccncc1)c1nc(-c2ccccc2)cs1

fluorescence lifetime (in c1cc(-n2c3ccccc3c3ccccc32)cc(-n2c3ccccc3c3ccccc32)c1): 8.4 ns
Structure (SMILES): COc1ccc(-c2ccc3c(c2)c2cc(-c4ccc(OC)cc4)ccc2n3-c2ccc(C(=O)c3ccc4sc5ccccc5c4c3)nc2)cc1

fluorescence lifetime (in C1COCCO1): 1.32 ns | fluorescence lifetime (in CC#N): 2.52 ns
Structure (SMILES): C(/C=C/c1ccc(-n2c3ccccc3c3ccccc32)cc1)=C\c1ccncc1

fluorescence lifetime (in ClC(Cl)Cl): 1.6 ns
Structure (SMILES): C(#Cc1cccs1)C(C#Cc1cccs1)=Cc1ccc(C=C(C#Cc2cccs2)C#Cc2cccs2)cc1

Source: the Deep4Chem optical property database
